These results are taken from patent US9169260B2 (MERCK SHARP & DOHME CORP., priority 2011, dated 2015).

Some results are limits rather than exact numbers.

Sequence of GST tagged IRAK-4 (Q9NWZ3 whole entry): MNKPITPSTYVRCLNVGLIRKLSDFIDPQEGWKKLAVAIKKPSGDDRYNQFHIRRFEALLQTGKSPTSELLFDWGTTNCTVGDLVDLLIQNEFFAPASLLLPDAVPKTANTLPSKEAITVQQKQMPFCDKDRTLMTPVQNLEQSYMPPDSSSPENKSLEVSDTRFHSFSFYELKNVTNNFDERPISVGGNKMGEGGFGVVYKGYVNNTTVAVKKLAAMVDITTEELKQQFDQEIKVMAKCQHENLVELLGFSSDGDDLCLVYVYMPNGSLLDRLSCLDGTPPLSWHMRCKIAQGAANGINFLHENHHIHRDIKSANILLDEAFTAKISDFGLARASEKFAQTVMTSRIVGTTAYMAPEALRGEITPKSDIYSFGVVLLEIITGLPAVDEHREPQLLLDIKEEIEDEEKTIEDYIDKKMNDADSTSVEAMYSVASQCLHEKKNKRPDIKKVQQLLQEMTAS

In the first assay the target is GST tagged IRAK-4 (Homo sapiens (Human), UniProt Q9NWZ3). The assay is described as follows: IRAK-4 Kinase Assay (IMAP fluorescence polarization). The note with it: 100 μM ATP, 30 minutes at 25° C. The format is biochemical. In a few lines:
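Activity was read by IMAP fluorescence polarization, where phosphopeptide binding to M(III) nanoparticles raises FP. The 30-minute, 25° C reaction used 100 μM ATP, 100 nM RP7030 substrate and 0.5 nM GST-IRAK-4 in pH 7.2 Tris buffer with MgCl2, DTT and Tween 20.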
(Fluorescence polarisation rises when a labelled molecule tumbles more slowly, as on binding a larger partner.)
In turn, `Cc1ccc(-n2nc(N3CCN(C4CCCC4)CC3)cc2NC(=O)c2cnn3cccnc23)nc1` [Example 323, N-[3-(4-cyclopentylpiperazin-1-yl)-1-(5-methylpyridin-2-yl)-1H-pyrazol-5-yl]pyrazolo[1,5-a]pyrimidine-3-carboxamide] came in with an IC50 below 0.1 µM.
The same measure, in the same setting: next, `Cc1ccc(-n2nc(C3CCN(C4CCCOC4)CC3)cc2NC(=O)c2cnn3cc(Br)cnc23)cc1` (stereo not shown) [Example 109, 6-bromo-N-(3-(1-(tetrahydro-2H-pyran-3-yl)piperidin-4-yl)-1-(p-tolyl)-1H-pyrazol-5-yl)pyrazolo[1,5-a]pyrimidine-3-carboxamide]: below 0.1 µM.
In the case of `Cc1ccc(-n2nc(-c3ccc(S(N)(=O)=O)cc3)cc2NC(=O)c2cnn3cccnc23)cc1` [Example 99, N-(3-(4-sulfamoylphenyl)-1-(p-tolyl)-1H-pyrazol-5-yl)pyrazolo[1,5-a]pyrimidine-3-carboxamide], the half-inhibitory concentration (IC50) is below 0.1 µM.
In turn, `Cc1ccc(-n2nc(-c3ccc(CN4CCCC4)cc3)cc2NC(=O)c2cnn3cccnc23)cc1` [Example 143, N-(3-(4-(pyrrolidin-1-ylmethyl)phenyl)-1-(p-tolyl)-1H-pyrazol-5-yl)pyrazolo[1,5-a]pyrimidine-3-carboxamide] displayed an IC50 below 0.1 µM.
`Cc1ccc(-n2nc(C3CCN(C4CCCCC4)CC3)cc2NC(=O)c2cnn3cccnc23)cc1` [Example 204, N-[3-(1-cyclohexylpiperidin-4-yl)-1-(4-methylphenyl)-1H-pyrazol-5-yl]pyrazolo[1,5-a]pyrimidine-3-carboxamide]: the IC50 was below 0.1 µM.
For the compound `Cc1ccc(-n2nc(-c3ccc(S(=O)(=O)N(C)C)cc3)cc2NC(=O)c2cnn3cccnc23)cc1` [Example 353, N-{3-[4-(dimethylsulfamoyl)phenyl]-1-(4-methylphenyl)-1H-pyrazol-5-yl}pyrazolo[1,5-a]pyrimidine-3-carboxamide], the concentration for half-maximal inhibition (IC50) is below 0.1 µM.
The same measure, in the same setting: next, `Cc1ccc(-n2nc(C3CCN(C4CC5(CCCC5)C4)CC3)cc2NC(=O)c2cnn3cccnc23)cc1` [Example 257, N-[1-(4-methylphenyl)-3-(1-spiro[3.4]oct-2-ylpiperidin-4-yl)-1H-pyrazol-5-yl]pyrazolo[1,5-a]pyrimidine-3-carboxamide]: below 0.1 µM; `Cc1ccc(-n2nc(C3CCN(S(C)(=O)=O)CC3)cc2NC(=O)c2cnn3cc(C(N)=O)cnc23)cc1` [Example 120, N3-(3-(1-(methylsulfonyl)piperidin-4-yl)-1-(p-tolyl)-1H-pyrazol-5-yl)pyrazolo[1,5-a]pyrimidine-3,6-dicarboxamide]: below 0.1 µM.
On to `Cc1ccc(-n2nc(C3CCN(CC4CC4)CC3)cc2NC(=O)c2cnn3cccnc23)nc1` [Example 281, N-{3-[1-(cyclopropylmethyl)piperidin-4-yl]-1-(5-methylpyridin-2-yl)-1H-pyrazol-5-yl}pyrazolo[1,5-a]pyrimidine-3-carboxamide], for which the IC50 is below 0.1 µM.
Take `CC(C)(N)c1ccc(-n2nc(C3CCN(S(C)(=O)=O)CC3)cc2NC(=O)c2cnn3cccnc23)nc1` [Example 159, N-(1-(5-(2-aminopropan-2-yl)pyridin-2-yl)-3-(1-(methylsulfonyl)piperidin-4-yl)-1H-pyrazol-5-yl)pyrazolo[1,5-a]pyrimidine-3-carboxamide]: the IC50 was below 0.1 µM.
`Cc1ccc(-n2nc(C3CCN(C4CCC5(CCC(=O)N5)CC4)CC3)cc2NC(=O)c2cnn3cccnc23)cc1` (stereo not shown) [Example 255, N-{1-(4-methylphenyl)-3-[1-(2-oxo-1-azaspiro[4.5]dec-8-yl)piperidin-4-yl]-1H-pyrazol-5-yl}pyrazolo[1,5-a]pyrimidine-3-carboxamide]: the concentration for half-maximal inhibition (IC50) is below 0.1 µM.
`Cc1ccc(-n2nc(C3CCNCC3)cc2NC(=O)c2cnn3cccnc23)nc1` [Example 152, N-(1-(5-methylpyridin-2-yl)-3-(piperidin-4-yl)-1H-pyrazol-5-yl)pyrazolo[1,5-a]pyrimidine-3-carboxamide] returned an IC50 below 0.1 µM.
The compound `CCCN1CCC(c2cc(NC(=O)c3cnn4cccnc34)n(-c3ccc(C)cc3)n2)CC1` [Example 220, N-[1-(4-methylphenyl)-3-(1-propylpiperidin-4-yl)-1H-pyrazol-5-yl]pyrazolo[1,5-a]pyrimidine-3-carboxamide] gave a half-inhibitory concentration (IC50) below 0.1 µM.
Turning to `Cc1ccc(-n2nc(C3CCN(C4CCC4)CC3)cc2NC(=O)c2cnn3cccnc23)nc1` [Example 274, N-[3-(1-cyclobutylpiperidin-4-yl)-1-(5-methylpyridin-2-yl)-1H-pyrazol-5-yl]pyrazolo[1,5-a]pyrimidine-3-carboxamide], the IC50 was below 0.1 µM.
On the same count and under the same terms, next, `CCC(C)N1CCC(c2cc(NC(=O)c3cnn4cccnc34)n(-c3ccc(C)cc3)n2)CC1` (stereo not shown) [Example 209]: below 0.1 µM; `Cc1ccc(-n2nc(C3CCN(C4CCC4)CC3)cc2NC(=O)c2cnn3cccnc23)c(F)c1` [Example 59, N-(3-(1-cyclobutylpiperidin-4-yl)-1-(2-fluoro-4-methylphenyl)-1H-pyrazol-5-yl)pyrazolo[1,5-a]pyrimidine-3-carboxamide]: below 0.1 µM.
For `Cc1ccc(-n2nc(C3CCN(C4CCOCC4)CC3)cc2NC(=O)c2cnn3cccnc23)cc1` [Example 206], the IC50 was below 0.1 µM.

Staying with this assay, now noted: 100 μM ATP, 30 minutes at 25° C.; μM.
Consider `Cc1ccc(-n2nc(C3CCCN(S(C)(=O)=O)C3)cc2NC(=O)c2cnn3cccnc23)cc1` (stereo not shown) [Example 43, N-(3-(1-(methylsulfonyl)piperidin-3-yl)-1-(p-tolyl)-1H-pyrazol-5-yl)pyrazolo[1,5-a]pyrimidine-3-carboxamide], for which the IC50 was below 1 µM.
`CNC(=O)c1cccc(-c2cc(NC(=O)c3cnn4cccnc34)n(-c3ccc(C)cc3)n2)c1` [Example 350, N-{3-[3-(methylcarbamoyl)phenyl]-1-(4-methylphenyl)-1H-pyrazol-5-yl}pyrazolo[1,5-a]pyrimidine-3-carboxamide]: the IC50 was below 1 µM.
`Cc1ccc(-n2nc(-c3cncnc3)cc2NC(=O)c2cnn3cccnc23)cc1` [Example 137, N-(3-(pyrimidin-5-yl)-1-(p-tolyl)-1H-pyrazol-5-yl)pyrazolo[1,5-a]pyrimidine-3-carboxamide] displayed an IC50 above 1 µM.
Still for that read-out and setting: next, `Cc1nn(C)c2nc(-n3nc(C4CCN(S(C)(=O)=O)CC4)cc3NC(=O)c3cnn4cccnc34)ccc12` [Example 175, N-(1-(1,3-dimethyl-1H-pyrazolo[3,4-b]pyridin-6-yl)-3-(1-(methylsulfonyl)piperidin-4-yl)-1H-pyrazol-5-yl)pyrazolo[1,5-a]pyrimidine-3-carboxamide]: below 1 µM.
Same read-out and setting: next, `Cc1ccc(-n2nc(C3CCN(S(=O)(=O)Cc4ccccc4)CC3)cc2NC(=O)c2cnn3cccnc23)cc1` [Example 387, N-{3-[1-(benzylsulfonyl)piperidin-4-yl]-1-(4-methylphenyl)-1H-pyrazol-5-yl}pyrazolo[1,5-a]pyrimidine-3-carboxamide]: below 1 µM; `Cc1ccc(-n2nc(C3CCCN(Cc4cncs4)C3)cc2NC(=O)c2cnn3cccnc23)cc1` (stereo not shown) [Example 284, N-{1-(4-methylphenyl)-3-[1-(1,3-thiazol-5-ylmethyl)piperidin-3-yl]-1H-pyrazol-5-yl}pyrazolo[1,5-a]pyrimidine-3-carboxamide]: below 1 µM; `COc1cccc(S(=O)(=O)N2CCC(c3cc(NC(=O)c4cnn5cccnc45)n(-c4ccc(C)cc4)n3)CC2)c1` [Example 385, N-[3-{1-[(3-methoxyphenyl)sulfonyl]piperidin-4-yl}-1-(4-methylphenyl)-1H-pyrazol-5-yl]pyrazolo[1,5-a]pyrimidine-3-carboxamide]: above 1 µM.
With `Cc1ccc(-n2nc(C3CCN(C4CN(C(=O)NC(C)(C)C)C4)CC3)cc2NC(=O)c2cnn3cccnc23)cc1` [Example 236, N-[3-{1-[1-(tert-butylcarbamoyl)azetidin-3-yl]piperidin-4-yl]-1-(4-methylphenyl)-1H-pyrazol-5-yl}pyrazolo[1,5-a]pyrimidine-3-carboxamide], the IC50 was below 1 µM.
As for `Cc1ccc(-n2nc(C3CCN(C4CN(C(=O)OC(C)(C)C)C4)CC3)cc2NC(=O)c2cnn3cccnc23)cc1` [Example 261, tert-butyl 3-(4-{1-(4-methylphenyl)-5-[(pyrazolo[1,5-a]pyrimidin-3-ylcarbonyl)amino]-1H-pyrazol-3-yl}piperidin-1-yl)azetidine-1-carboxylate], the IC50 was below 1 µM.
For `Cc1ccc(-n2nc(-c3cccc(NS(C)(=O)=O)c3)cc2NC(=O)c2cnn3cccnc23)cc1` [Example 346, N-[1-(4-methylphenyl)-3-{3-[(methylsulfonyl)amino]phenyl}-1H-pyrazol-5-yl]pyrazolo[1,5-a]pyrimidine-3-carboxamide], the IC50 is below 1 µM.
`Cc1ccc(-n2nc(C3CN(Cc4cocn4)C3)cc2NC(=O)c2cnn3cccnc23)cc1` [Example 318, N-{1-(4-methylphenyl)-3-[1-(1,3-oxazol-4-ylmethyl)azetidin-3-yl]-1H-pyrazol-5-yl}pyrazolo[1,5-a]pyrimidine-3-carboxamide] gave an IC50 below 1 µM.
Still for that read-out and setting: the result for `Cc1ccc(-n2nc(CN3CCCC3)cc2NC(=O)c2cnn3cccnc23)cc1` [Example 142, N-(3-(pyrrolidin-1-ylmethyl)-1-(p-tolyl)-1,4-pyrazol-5-yl)pyrazolo[1,5-a]pyrimidine-3-carboxamide] reads above 1 µM; that for `Cc1ccc(-n2nc(C3CCN(C4CN(S(=O)(=O)C5CC5)C4)CC3)cc2NC(=O)c2cnn3cccnc23)cc1` [Example 245, N-[3-{1-[1-(cyclopropylsulfonyl)azetidin-3-yl]piperidin-4-yl]-1-(4-methylphenyl)-1H-pyrazol-5-yl}pyrazolo[1,5-a]pyrimidine-3-carboxamide], below 1 µM; that for `Cc1ccc(-n2nc(C3CN(Cc4ccncc4)C3)cc2NC(=O)c2cnn3cccnc23)cc1` [Example 309, N-{1-(4-methylphenyl)-3-[1-(pyridin-4-ylmethyl)azetidin-3-yl]-1H-pyrazol-5-yl}pyrazolo[1,5-a]pyrimidine-3-carboxamide], below 1 µM.

As usually defined, the IC50 is the concentration that inhibits the measured activity by half.
